This passage reports inhibition in vivo and inhibition results from ChEMBL document CHEMBL3046387, “Antidepressant activity of carbamates and urea derivatives” (Med Chem Res, 2012).

Active and inactive are the calls of the source. The calls are words filed in the database; no cut-off is given here.

The term inhibition in vivo denotes how much of the control response was suppressed.

The assay deals with Mus musculus. The assay can be described thus: Antidepressant activity in Mus musculus (mouse) assessed as reduction of immobility time at 10 mg/kg after 1 hr measured for 5 min by forced swim test. Format: functional.
For the compound `CCN(CC)C(=O)Nc1ccc(Cl)cc1`, the inhibition in vivo at 10 mg/kg is 7.04%.
On the same count and under the same terms, the value for `CCCCCCCOC(=O)Nc1ccccc1` was 32.5%.
For the compound `CCNC(=S)N1CCN(c2ccccc2)CC1`, the inhibition result was “inactive”.
`CCOC(=O)Nc1ccccc1` [ETHYL PHENYLCARBAMATE]: the inhibition in vivo at 10 mg/kg was 21.6%.
The same measure, in the same setting: the figure for `CCN(CC)C(=O)Nc1ccc(C(=O)O)cc1` is 16.7%; for `CCN(CC)C(=O)Nc1ccccc1C(=O)O` it is 3.52%.
Take `CCN(CC)C(=O)Nc1c(C)cccc1C`: the inhibition result is “inactive”.
On to `NNCCc1ccccc1` [PHENELZINE], for which the inhibition in vivo at 10 mg/kg came to 15.9%.
Regarding `O=C(Nc1ccccc1)N1CCN(c2ccccc2)CC1`, the inhibition in vivo at 10 mg/kg worked out at 27.7%.
